Columns and labels:
Assay type in all cases: cell-based, human
[1] = test system: senescent progeric fibroblasts (cell passage 17); test: mitochondrial ROS (MitoSOX) by flow cytometry; settings: vs control, p<0.05, FIG. 19
Experimental: (§1) Progeric fibroblasts (Hutchinson-Gilford Progeria Syndrome Skin Fibroblasts, Coriell Cell Repositories, AG03198 B) were cultured in Dulbecco's Modified Eagle's Media (DMEM) supplemented with 10% fetal bovine serpm (FBS) and 100 unit/ml of penicillin, and 100 μg/ml of streptomycin (two antibiotics are purchased from Gibro-BRL and Grand Island, N.Y.) in a 5% CO2 incubator at 37° C. Subculturing was initiated when the cells were approximately 85% confluent in plates. Early subcultures were performed at a split ratio of 1:4, and later subcultures were performed at a split ratio of 1:2. When cell doubling time was 14 days, the cells were regarded as senescent progeric fibroblasts (cell passages 16 to 17).
The senescent progeric fibroblasts (cell passage 17) were seeded on each well of a 6-well plate in a concentration of 2,000 cells/well and cultured in the presence of 5 μM of Y-27632, 5 μM of FASUDIL, and 0.5 μM of SR3677 for 4 weeks in a 5% CO2 incubator at 37° C. The culture media were changed at every 4 days with new culture media supplemented with 5 μM of Y-27632, 5 μM of FASUDIL, and 0.5 μM of SR3677. A negative control group was prepared in the same manner, except that 0.05 (v/v) % of DMSO was used.
In addition, damage of mitochondria was identified by measuring reactive oxygen species (ROS) and mitochondrial membrane potentials which are well known in the art. ROS were measured using a 0.2 μM MitoSOX (Invitrogen, M3608) according to manufacturer's manuals. Light having a wavelength of 520 nm was irradiated to the cells using a FACSCaliber (Beckton Dickinson), and light emission was measured at 580 nm. The results were analyzed using Cell Quest 3.2 software (Beckton Dickinson). FIG. 19 is a graph displaying reactive oxygen species of progeric fibroblasts (cell passage 17) cultured in the presence of Rho-kinase inhibitors Y-27632 (5 μM), Fasudil (5 μM), and SR3677 (0.5 μM). […] In FIG. 19, * indicates statistically significant (p<0.05).

[2] = test system: senescent fibroblasts (after 37 cell passages); test: lipofuscin autofluorescence by flow cytometry; settings: 4 weeks, vs control, p<0.05, FIG. 9
Experimental: In addition, amounts of lipofuscin accumulated in the cultured cells were measured. Senescent cells (After 37 cell passages) were cultured for 4 weeks in a 5% CO2 incubator at 37° C. in the presence of 5 μM of Y-27632, 5 μM of FASUDIL, and 0.5 μM of SR3677. The culture media were changed at every 4 days with new culture media supplemented with 5 μM of Y-27632, 5 μM of FASUDIL, and 0.5 μM of SR3677. Since lipofuscin has autofluorescence characteristics, light having a wavelength of 488 nm was irradiated to the cells by using a FACSCaliber (Beckton Dickinson) and light emission at 520 nm was measured. The results are analyzed using a Cell Quest 3.2 software (Beckton Dickinson). FIG. 9 is a graph displaying amounts of lipofuscin in fibroblasts (after 37 cell passages) cultured in the presence of Rho-kinase inhibitors Y-27632 (5 μM), Fasudil (5 μM), and SR3677 (0.5 μM). […] In FIG. 9, * indicates statistically significant (p<0.05).

[3] = test system: senescent fibroblasts (after 38 cell passages); test: DNA comet assay; settings: 4 weeks, vs control, p<0.01, FIG. 12
Experimental: The degrees of restoration of DNA damage in senescent cells by the Rho-kinase inhibitors were identified by a DNA comet assay. This method is performed by detecting DNA fractions cleaved by ultraviolet (UV) irradiation. This method is based on gel electrophoresis. During gel electrophoresis, damaged DNA migrates farther than normal DNA forming a tail like a comet-tail. Then, a slide was stained with SYBR Green, and the length of a tail of a DNA fraction was measured using a fluorescence microscope to identify the degree of DNA damage.
FIG. 12 is a graph displaying degrees of DNA damage in fibroblasts (after 38 cell passages) cultured in the presence of Rho-kinase inhibitors Y-27632 (5 μM), Fasudil (5 μM), and SR3677 (0.5 μM) measured by a DNA comet assay indicating the degree of DNA damage. In FIG. 12, senescent cells (after 38 cell passages) were cultured in culture media supplemented with 5 μM of Y-27632, 5 μM of FASUDIL, and 0.5 μM of SR3677 for 4 weeks in a 5% CO2 incubator at 37° C. The culture media were changed at every 4 days with new culture media supplemented with 5 μM of Y-27632, 5 μM of FASUDIL, and 0.5 μM of SR3677. Also, negative control groups were prepared in the same manner as described above, except that one negative control group was prepared with no treatment and another was treated with 0.05 (v/v) % of DMSO. Cells having undergone 17 passages and having a cell doubling time of 4 to 5 days were used as young cells. […] Thus, it was confirmed that the degree of DNA damage increases in senescent cells. In the Comet assay, the Tail Moment is defined as multiplication of a length of the tail by a total DNA fraction contained in the tail. That is, the Tail Moment is a length of the tail migrated during gel electrophoresis. As the length of the tail decreases, the degree of DNA damage decreases. […] In FIG. 12, ** indicates statistically significant (p<0.01). In FIG. 12, the “Fibroblast p17” and “Fibroblast p38” refer to fibroblasts that were subcultured for 17 passages and fibroblasts subcultured for 38 passages, respectively.

[4] = test system: senescent progeric fibroblasts (passage 17); test: lipofuscin autofluorescence by flow cytometry; settings: 4 weeks, vs control, p<0.05, FIG. 18
Experimental: as §1
In addition, the amounts of lipofuscin accumulated in the cultured cells were measured. Senescent progeric fibroblasts (passage 17) were cultured in the presence of 5 μM of Y-27632, 5 μM of FASUDIL, and 0.5 μM of SR3677 for 4 weeks in a 5% CO2 incubator at 37° C. The culture media were changed at every 4 days with new culture media supplemented with 5 μM of Y-27632, 5 μM of FASUDIL, and 0.5 μM of SR3677. Since lipofuscin has autofluorescence characteristics, light having a wavelength of 488 nm was irradiated to the cells by using a FACSCaliber (Beckton Dickinson) and light emission at 520 nm was measured. The results were analyzed using Cell Quest 3.2 software (Beckton Dickinson). FIG. 18 is a graph displaying amounts of lipofuscin in progeric fibroblasts (passage 17) cultured in the presence of Rho-kinase inhibitors Y-27632 (5 μM), Fasudil (5 μM), and SR3677 (0.5 μM). […] In FIG. 18, * indicates statistically significant (p<0.05).

SMILES	ROS ([1]; 5 μM)	amounts of lipofuscin in cells ([2]; 5 μM)	DNA damage (Tail Moment) ([3]; 5 μM)	amounts of lipofuscin ([4]; 5 μM)	ROS ([1]; 0.5 μM)	amounts of lipofuscin in cells ([2]; 0.5 μM)	DNA damage (Tail Moment) ([3]; 0.5 μM)	amounts of lipofuscin ([4]; 0.5 μM)
O=S(=O)(c1cccc2cnccc12)N1CCCNCC1 [FASUDIL, 5-(1,4-diazepane-1-sulfonyl)isoquinoline]	significantly reduced	significantly reduced	considerably restored	significantly reduced	–	–	–	–
CN(C)CCOc1cc(-c2cn[nH]c2)ccc1NC(=O)C1COc2ccccc2O1 (stereo not drawn) [SR3677]	–	–	–	–	significantly reduced	significantly reduced	considerably restored	significantly reduced
C[C@@H](N)[C@H]1CC[C@H](C(=O)Nc2ccncc2)CC1 [Y-27632, (1R,4R)-4-((R)-1-aminoethyl)-N-(pyridin-4-yl)cyclohexanecarboxamide]	significantly reduced	significantly reduced	considerably restored	significantly reduced	–	–	–	–

Source: US9943525B2, “Composition for reducing cell senescence comprising Rho-kinase inhibitor and use thereof” (Samsung Electronics Co., Ltd., priority 2014, dated 2018)
